Experiment: octanol/water partition coefficient (log P) by high performance liquid chromatography according to JIS Z 7260-117 (2006)
Type: physicochemical
From the text: The combination which is the best mode described above can be confirmed from a numerical value of an octanol/water partition coefficient (log Pow, hereinafter abbreviated as “log P”) which is one of simple measures for evaluating a condensation property of chemicals. In the present invention, the smaller the value of log P is, the better the balance between the vulcanization speed, securing of the adhesion performance and the accumulativeness in human bodies is.
In the present invention (including examples and the like described later), the octanol/water partition coefficient (log P) described above can be measured by a high performance liquid chromatography according to JIS Z 7260-117 (2006), and it is defined by the following equation: log P=log(┌Co┘/┌Cw┘)
Co: concentration of a test substance in a 1-octanol layer
Cw: concentration of a test substance in an aqueous layer
Also, the octanol/water partition coefficients (log P) of the respective vulcanization accelerators obtained (production examples 1 to 6) were measured by a high performance liquid chromatography according to JIS Z 7260-117 (2006). A high performance liquid chromatography manufactured by Shimadzu Corporation was used.

Row | SMILES | octanol/water partition coefficient (log P)
1 | CCN(Sc1nc2ccccc2s1)C(C)(C)C [N-ethyl-N-t-butylbenzothiazole-2-sulpheneamide] | 4.9
2 | CC(C)N(Sc1nc2ccccc2s1)C(C)(C)C [N-i-propyl-N-t-butylbenzothiazole-2-sulpheneamide] | 5.1
3 | CN(Sc1nc2ccccc2s1)C(C)(C)C [N-methyl-N-t-butylbenzothiazole-2-sulpheneamide] | 4.5
4 | CCCCN(Sc1nc2ccccc2s1)C(C)(C)C [N-n-butyl-N-t-butylbenzothiazole-2-sulpheneamide] | 5.8
5 | CCCN(Sc1nc2ccccc2s1)C(C)(C)C [N-n-propyl-N-t-butylbenzothiazole-2-sulpheneamide] | 5.3
